These molecules were tested against T1, PknB (Mycobacterium tuberculosis, UniProt P9WI81) (assay: biochemical). Details: 3 nM PknB, 6 uM GarA, 3 μM ATP, 30 min; competitive tight-binding fit; several symbols in a cell = repeat determinations.
T1 construct: made in house
Parameters: species or system M. tuberculosis

T1 sequence (P9WI81 whole entry): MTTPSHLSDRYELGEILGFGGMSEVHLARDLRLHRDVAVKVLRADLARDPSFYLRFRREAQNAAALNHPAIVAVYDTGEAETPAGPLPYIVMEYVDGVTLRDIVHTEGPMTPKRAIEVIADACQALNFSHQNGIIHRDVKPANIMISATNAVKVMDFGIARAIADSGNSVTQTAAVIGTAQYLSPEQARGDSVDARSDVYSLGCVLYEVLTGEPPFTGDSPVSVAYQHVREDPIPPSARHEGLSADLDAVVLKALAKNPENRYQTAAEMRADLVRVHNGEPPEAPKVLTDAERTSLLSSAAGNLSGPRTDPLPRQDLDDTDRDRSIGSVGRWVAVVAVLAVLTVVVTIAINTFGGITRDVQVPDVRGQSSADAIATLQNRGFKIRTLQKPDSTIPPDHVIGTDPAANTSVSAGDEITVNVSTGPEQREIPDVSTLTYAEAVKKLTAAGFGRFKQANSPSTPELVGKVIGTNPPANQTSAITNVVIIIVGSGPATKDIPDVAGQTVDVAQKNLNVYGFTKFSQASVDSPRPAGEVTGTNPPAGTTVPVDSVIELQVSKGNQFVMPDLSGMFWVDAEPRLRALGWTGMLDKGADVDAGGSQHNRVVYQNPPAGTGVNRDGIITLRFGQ

With `NS(=O)(=O)c1ccc(-c2ncc(CCO)c(Nc3cc(C4CC4)[nH]n3)n2)s1` [Compound 239, 5-(4-(5-cyclopropyl-1H-pyrazol-3-ylamino)-5-(2-hydroxyethyl)pyrimidin-2-yl)thiophene-2-sulfonamide] the “Ki Values” was “A*, B**”.
With `NS(=O)(=O)C/C=C/c1cccc(Nc2cc(C3CC3)[nH]n2)n1` [Compound 270, 3-[6-[(5-cyclopropyl-1H-pyrazol-3-yl)amino]-2-pyridyl]prop-2-ene-1-sulfonamide] the “Ki Values” was “B**, B*, B*, B*”.

Same assay, conditions: 3 nM PknB, 6 uM GarA, 3 μM ATP, 30 min; competitive tight-binding fit; several symbols in a cell = repeat determinations; read-out: Ki Values

Compared with `C#Cc1cnc(-c2ccc(S(=O)(=O)CCCNC(C)=O)s2)nc1Nc1cc(C2CC2)[nH]n1` [Compound 229, N-(3-(5-(4-(5-cyclopropyl-1H-pyrazol-3-ylamino)-5-ethynylpyrimidin-2-yl)thiophen-2-ylsulfonyl)propyl)acetamide], `C#Cc1cnc(-c2ccc(S(C)(=O)=O)s2)nc1Nc1cc(C2CC2)[nH]n1` [Compound 255, N-(5-cyclopropyl-4H-pyrazol-3-yl)-5-ethynyl-2-(5-(methylsulfonyl)thiophen-2-yl)pyrimidin-4-amine] is lower in Ki: 10 to 50 nM for the first, 1 to 10 nM for the second.

Compared with `C#Cc1cnc(-c2ccc(C(O)CCOC)s2)nc1Nc1cc(C2CC2)n[nH]1` (stereo not drawn) [Compound 230, 1-[5-[4-[(5-cyclopropyl-2H-pyrazol-3-yl)amino]-5-ethynyl-pyrimidin-2-yl]-2-thienyl]-3-methoxy-propan-1-ol], `C#Cc1cnc(-c2ccc(C(O)CCOC(C)=O)s2)nc1Nc1cc(C2CC2)[nH]n1` (stereo not drawn) [Compound 243, 3-(5-(4-(5-cyclopropyl-1H-pyrazol-3-ylamino)-5-ethynylpyrimidin-2-yl)thiophen-2-yl)-3-hydroxypropyl acetate] is lower in Ki: 50 to 100 nM for the first, 10 to 50 nM for the second.

Compared with `C#Cc1cnc(-c2ccc(C(O)C(=O)O)s2)nc1Nc1cc(C2CC2)[nH]n1` (stereo not drawn) [Compound 231, 2-[5-[4-[(5-cyclopropyl-1H-pyrazol-3-yl)amino]-5-ethynyl-pyrimidin-2-yl]-2-thienyl]-2-hydroxy-acetic acid], `C#Cc1cnc(-c2ccc(C(O)C(=O)OCC)s2)nc1Nc1cc(C2CC2)[nH]n1` (stereo not drawn) [Compound 233, ethyl 2-[5-[4-[(5-cyclopropyl-1H-pyrazol-3-yl)amino]-5-ethynyl-pyrimidin-2-yl]-2-thienyl]-2-hydroxy-acetate] is lower in Ki: 50 to 100 nM for the first, 10 to 50 nM for the second. The second binds more tightly here.

First: NS(=O)(=O)c1ccc(-c2ncc(Cl)c(Nc3cc(-c4ccccc4)[nH]n3)n2)s1 [Compound 234, 5-[5-chloro-4-[(5-phenyl-1H-pyrazol-3-yl)amino]-pyrimidin-2-yl]thiophene-2-sulfonamide]
Second: NS(=O)(=O)c1ccc(-c2ncc(Cl)c(Nc3cc(-c4ccco4)[nH]n3)n2)s1 [Compound 247, 5-[5-chloro-4-[[5-(2-furyl)-1H-pyrazol-3-yl]amino]-pyrimidin-2-yl]thiophene-2-sulfonamide]
The Ki of the first is higher: greater than 4000 nM for the first, 100 to 500 nM for the second.

`NS(=O)(=O)c1ccc(-c2ncc(Cl)c(Nc3cc(C4CCCC4)[nH]n3)n2)s1` [Compound 235, 5-[5-chloro-4-[(5-cyclopentyl-1H-pyrazol-3-yl)amino]-pyrimidin-2-yl]thiophene-2-sulfonamide] and `NNS(=O)(=O)c1ccc(-c2ncc(Cl)c(Nc3cc(C4CC4)[nH]n3)n2)s1` [Compound 251, 5-(5-chloro-4-(5-cyclopropyl-1H-pyrazol-3-ylamino)pyrimidin-2-yl)thiophene-2-sulfonohydrazide] fall in the same range of Ki: 10 to 50 nM for the first, 10 to 50 nM for the second.

Compared with `CC(=O)Nc1cnc(-c2ccc(S(N)(=O)=O)s2)nc1Nc1cc(C2CC2)[nH]n1` [Compound 241, N-[4-[(5-cyclopropyl-1H-pyrazol-3-yl)amino]-2-(5-sulfamoyl-2-thienyl)-pyrimidin-5-yl]acetamide], `NS(=O)(=O)c1ccc(-c2ncc(/C=C/CO)c(Nc3cc(C4CC4)[nH]n3)n2)s1` [Compound 281, (E)-5-(4-(5-cyclopropyl-1H-pyrazol-3-ylamino)-5-(3-hydroxyprop-1-enyl)pyrimidin-2-yl)thiophene-2-sulfonamide] is lower in Ki: 50 to 100 nM for the first, 1 to 10 nM for the second.

`C#Cc1cnc(-c2ccc(C(O)CCO)s2)nc1Nc1cc(C2CC2)[nH]n1` (stereo not drawn) [Compound 242, 1-(5-(4-(5-cyclopropyl-1H-pyrazol-3-ylamino)-5-ethynylpyrimidin-2-yl)thiophen-2-yl)propane-1,3-diol] and `C#Cc1cnc(-c2ccc(C(=O)C(=O)O)s2)nc1Nc1cc(C2CC2)[nH]n1` [Compound 246, 2-[5-[4-[(5-cyclopropyl-1H-pyrazol-3-yl)amino]-5-ethynyl-pyrimidin-2-yl]-2-thienyl]-2-oxo-acetic acid] fall in the same range of Ki: 10 to 50 nM for the first, 10 to 50 nM for the second.

`C#Cc1cnc(N2CCCCC2C(=O)OC)nc1Nc1cc(C2CC2)[nH]n1` (stereo not drawn) [Compound 244, methyl 1-[4-[(5-cyclopropyl-1H-pyrazol-3-yl)amino]-5-ethynyl-pyrimidin-2-yl]piperidine-2-carboxylate] and `C#Cc1cnc(N2CCCCC2C(=O)O)nc1Nc1cc(C2CC2)n[nH]1` (stereo not drawn) [Compound 245, 1-[4-[(5-cyclopropyl-2H-pyrazol-3-yl)amino]-5-ethynyl-pyrimidin-2-yl]piperidine-2-carboxylic acid] cannot be ordered by Ki: greater than 4000 nM for the first, greater than 4000 nM for the second.

First: C#Cc1cnc(N2CCCN(C)CC2)nc1Nc1cc(C2CC2)[nH]n1 [Compound 248, N-(5-cyclopropyl-1H-pyrazol-3-yl)-5-ethynyl-2-(4-methyl-1,4-diazepan-1-yl)-pyrimidin-4-amine]
Second: C#Cc1cnc(N2CCCN(C(C)=O)CC2)nc1Nc1cc(C2CC2)n[nH]1 [Compound 258, 1-[4-[4-[(5-cyclopropyl-2H-pyrazol-3-yl)amino]-5-ethynyl-pyrimidin-2-yl]-1,4-diazepan-1-yl]ethanone]
The Ki of the first is higher: greater than 4000 nM for the first, 100 to 500 nM for the second.

First: C#Cc1cnc(C2=CCNCC2)nc1Nc1cc(C2CC2)[nH]n1 [Compound 249, N-(5-cyclopropyl-1H-pyrazol-3-yl)-5-ethynyl-2-(1,2,3,6-tetrahydropyridin-4-yl)pyrimidin-4-amine]
Second: C[S+]([O-])c1ccc(-c2ncc(Cl)c(Nc3cc(C4CC4)[nH]n3)n2)s1 (stereo not drawn) [Compound 264, 5-chloro-N-(5-cyclopropyl-1H-pyrazol-3-yl)-2-(5-methylsulfinyl-2-thienyl)-pyrimidin-4-amine]
The Ki of the first is higher: greater than 4000 nM for the first, 1 to 10 nM for the second. The second binds more tightly here.

`CC(C)(C)NS(=O)(=O)c1ccc(-c2ncc(NC=O)c(Nc3cc(C4CC4)[nH]n3)n2)s1` [Compound 253, N-[4-[(5-cyclopropyl-1H-pyrazol-3-yl)amino]-2-[5-(tert-butylsulfamoyl)-2-thienyl]-pyrimidin-5-yl]formamide] and `CC(C)(C)NS(=O)(=O)c1ccc(-c2nc(Nc3cc(C4CC4)[nH]n3)cc(C(=O)O)n2)s1` [Compound 278, 6-[(5-cyclopropyl-1H-pyrazol-3-yl)amino]-2-[5-(tert-butylsulfamoyl)-2-thienyl]-pyrimidine-4-carboxylic acid] fall in the same range of Ki: 100 to 500 nM for the first, 100 to 500 nM for the second.

First: NS(=O)(=O)c1ccc(-c2ncc(Cl)c(Nc3cc(C4CCN(C(=O)OCc5ccccc5)C4)n[nH]3)n2)s1 (stereo not drawn) [Compound 262, benzyl 3-[5-[[5-chloro-2-(5-sulfamoyl-2-thienyl)-pyrimidin-4-yl]amino]-1H-pyrazol-3-yl]pyrrolidine-1-carboxylate]
Second: NS(=O)(=O)c1ccc(-c2ncc(Cl)c(Nc3cc(C4CCNC4)n[nH]3)n2)s1 (stereo not drawn) [Compound 263, 5-[5-chloro-4-[(5-pyrrolidin-3-yl-2H-pyrazol-3-yl)amino]-pyrimidin-2-yl]thiophene-2-sulfonamide]
The Ki of the first is lower: 1000 to 2000 nM for the first, greater than 4000 nM for the second. The first binds more tightly here.

First: CC(C)(C)NS(=O)(=O)C/C=C/c1cccc(Nc2cc(C3CC3)[nH]n2)n1 [Compound 269, 3-[6-[(5-cyclopropyl-1H-pyrazol-3-yl)amino]-2-pyridyl]-N-tert-butyl-prop-2-ene-1-sulfonamide]
Second: CC(C)(C)NS(=O)(=O)c1ccc(-c2cccc(Nc3cc(C4CC4)[nH]n3)n2)s1 [Compound 271, 5-[6-[(5-cyclopropyl-1H-pyrazol-3-yl)amino]-2-pyridyl]-N-tert-butyl-thiophene-2-sulfonamide]
The Ki of the first is higher: 100 to 500 nM for the first, 10 to 50 nM for the second. The second binds more tightly here.

`NS(=O)(=O)c1ccc(-c2cccc(Nc3cc(C4CC4)[nH]n3)n2)s1` [Compound 272, 5-[6-[(5-cyclopropyl-1H-pyrazol-3-yl)amino]-2-pyridyl]thiophene-2-sulfonamide] and `NS(=O)(=O)c1ccc(-c2nc(CO)cc(Nc3cc(C4CC4)[nH]n3)n2)s1` [Compound 285, 5-[4-[(5-cyclopropyl-1H-pyrazol-3-yl)amino]-6-(hydroxymethyl)pyrimidin-2-yl]thiophene-2-sulfonamide] fall in the same range of Ki: 1 to 10 nM for the first, 1 to 10 nM for the second.

First: CC(C)(C)NS(=O)(=O)c1ccc(-c2ccc([N+](=O)[O-])c(Nc3cc(C4CC4)n[nH]3)n2)s1 [Compound 274, 5-[6-[(5-cyclopropyl-2H-pyrazol-3-yl)amino]-5-nitro-2-pyridyl]-N-tert-butyl-thiophene-2-sulfonamide]
Second: Nc1ccc(-c2ccc(S(N)(=O)=O)s2)nc1Nc1cc(C2CC2)n[nH]1 [Compound 276, 5-[5-amino-6-[(5-cyclopropyl-2H-pyrazol-3-yl)amino]-2-pyridyl]thiophene-2-sulfonamide]
The Ki of the first is higher: 50 to 100 nM for the first, 1 to 10 nM for the second. The second binds more tightly here.

First: O=C1/C=C\c2c(n[nH]c2C2CC2)Nc2nc(ncc2Cl)-c2ccccc21 [Compound 277, chloro-cyclopropyl-BLAHone]
Second: CS(=O)(=O)NCc1ccc(-c2ncc(Cl)c(Nc3cc(C4CC4)n[nH]3)n2)s1 [Compound 280, N-[[5-[5-chloro-4-[(5-cyclopropyl-2H-pyrazol-3-yl)amino]-pyrimidin-2-yl]-2-thienyl]methyl]methanesulfonamide]
The Ki of the first is higher: greater than 4000 nM for the first, 10 to 50 nM for the second. The second binds more tightly here.

Compared with `CN(C)c1cc(Nc2cc(C3CC3)n[nH]2)nc(-c2ccc(S(N)(=O)=O)s2)n1` [Compound 282, 5-[4-[(5-cyclopropyl-2H-pyrazol-3-yl)amino]-6-dimethylamino-pyrimidin-2-yl]thiophene-2-sulfonamide], `NS(=O)(=O)c1ccc(-c2nc(Nc3cc(C4CC4)[nH]n3)cc(C(=O)O)n2)s1` [Compound 283, 6-[(5-cyclopropyl-1H-pyrazol-3-yl)amino]-2-(5-sulfamoyl-2-thienyl)-pyrimidine-4-carboxylic acid] is lower in Ki: 2000 to 4000 nM for the first, 100 to 500 nM for the second.
